From publication PMC8122671, “New Succinimides with Potent Anticancer Activity: Synthesis, Activation of Stress Signaling Pathways and Characterization of Apoptosis in Leukemia and Cervical Cancer Cells” (International Journal of Molecular Sciences, 2021)
Structures can show the parent of a compound that is named as a salt. Where two headings read alike, the source gives them in different places.

What was measured:
[1] = test system: MOLT-4 (Human T-Lymphoid Cell Line); assay: MTT cytotoxicity assay, MOLT-4; assay type: cell-based; conditions: read-out: IC50 MOLT-4
Experimental: (§1) The cytotoxicity of new derivatives of dicarboximides was tested in HeLa (cervix carcinoma cell line), K562 (myelogenous leukemia cell line), MOLT-4 (Human T-Lymphoid Cell Line), and HUVEC (normal endothelial) cells. First, the viability of cells was determined after 48 h incubation with the screened compounds used at the concentration of 100 μM (data not shown). […] Cells exposed to 1% DMSO (as vehicle) served as the control with 100% survival.
(§2) Human umbilical vein endothelial cells (Life Technologies, Carlsbad, CA, USA) were cultured (according to the manufacturer’s instructions) in Medium 200 containing low serum growth supplement; 1 × 10^4 cells were seeded on each well on a 96-well plate (Nunc, Roskilde, Denmark). The HeLa (human cervix carcinoma), K562, and MOLT-4 (leukemia) cells were cultured in RPMI 1640 medium supplemented with antibiotics and 10% fetal calf serum in a 5% CO2–95% air atmosphere; 7 × 10^3 cells were seeded on each well on a 96-well plate (Nunc). Twenty-four hours later, cells were exposed to the test compounds for additional 48 hours. Stock solutions of test compounds were freshly prepared in DMSO. The final concentrations of the compounds tested in the cell cultures were 2 × 10^−1, 1 × 10^−1, 5 × 10^−2, 1 × 10^−2, 1 × 10^−3, and 1 × 10^−4 mM. The concentration of DMSO in the cell culture medium was 1%. The values of IC50 (the concentration of test compound required to reduce the cell survival fraction to 50% of the control) were calculated from dose–response curves and used as a measure of cellular sensitivity to a given treatment. The cytotoxicity of all compounds was determined by the MTT [3-(4,5-dimethylthiazol-2-yl)-2,5-diphenyltetrazolium bromide; Sigma, St. Louis, MO, USA] assay. Briefly, after 24 or 48 h of incubation with drugs, the cells were treated with the MTT reagent, and incubation was continued for 2 h. MTT-formazan crystals were dissolved in 20% SDS and 50% DMF at pH 4.7, and absorbance was read at 570 and 650 nm on a microplate reader FLUOstar Omega (BMG Labtech, Offenburg, Germany). As a control (100% viability), we used cells grown in the presence of the vehicle (1% DMSO) only.

[2] = test system: K562 (myelogenous leukemia cell line); assay: MTT cytotoxicity assay, K562; assay type: cell-based, human; conditions: Homo sapiens, K562, 48 h, 48 h incubation; average (SD) of three experiments; read-out: IC50 K562
Experimental: as §1, §2

[3] = test system: HUVEC (normal endothelial) cells; assay: MTT cytotoxicity assay, HUVEC; assay type: cell-based; conditions: Homo sapiens, read-out: IC50 HUVEC
Experimental: as §1, §2

[4] = test system: HeLa (human cervix carcinoma) cells; assay: MTT cytotoxicity assay, HeLa; assay type: cell-based; conditions: 48 h incubation, average (SD) of three experiments, read-out: IC50 HeLa
Experimental: as §1, §2

[5] = Lipophilicity (logkw) by reversed-phase chromatography (RP-HPLC); assay type: physicochemical; conditions: for logkw (Experimental): extrapolated to pure water; for logkw (Table S2): intercept of logk vs methanol fraction, n = 4
Description: The main goal of the synthetic part was the synthesis of new derivatives of dicarboximides with decreased lipophilicity in comparison to the lead compounds, i.e., Ia–Ie and II. To reduce the lipophilicity of the new dicarboximides, a hydroxyalkyl chain connected with an aliphatic amine was introduced to the imides (Scheme 1). At the same time, the imide scaffold in derivatives from group 2 and 3 was the same as in lead compounds Ia–Ie and II, respectively (Figure 1). The structure of the imide was changed in derivatives 1b–1g. The lipophilicity of new derivatives was calculated using the Osiris Property Explorer program. For some compounds, lipophilicity was determined experimentally by a reversed-phase chromatography (detailed description is given in Materials and Methods and in the Supplementary Data, Table S2). Table 1 summarizes the calculated (clogP) and experimental (logkw) parameters of the lipophilicity of new derivatives.
The reversed-phase high-performance liquid chromatography (RP-HPLC) analysis was performed on a Merck–Hitachi LaChrom Elite System (Merck, Darmstadt, Germany) with diode array detector L-2455, thermostat L-2300, pump L-2130, and autosampler L-2200 and with the Waters XTerra MS RP-18 (3.5 μm, 150 × 4.6 mm) chromatographic column (Waters, Milford, MA, USA) as the stationary phase. The mobile phase consisted of methanol, water, and 0.1% (v/v) formic acid and was degassed by the use of the built-in membrane degasser. The methanol gradient grade for HPLC was purchased from Merck (Merck, Darmstadt, Germany) and formic acid from Polish Reagents (Polish Reagents, Gliwice, Poland); double-distilled water was used. Then, 5 μL of methanolic solutions (0.1%; m/v) of selected samples were applied to the chromatographic column by the use of an autosampler Hitachi L-2200 (LaChrom Elite, Hitachi-Merck, Darmstadt, Germany). The analysis was performed with the flow rate of 0.7 mL min^−1 in isocratic mode using various concentrations of organic modifier (methanol) in binary polar mobile phases; percentages of methanol in water were 45–70% (%, v/v) and changed by 5% per step. Chromatograms were detected at 254 nm and the temperature of the column was 25 °C. All experiments were repeated in triplicate, and the final results were taken to be the arithmetic means. Dead time was measured by the use of uracil (Calbiochem. Merck, Darmstadt, Germany). Statistical and regression analyses were performed using Statistica (ver. 13.3 for Windows). The chromatographic lipophilicity parameters ( logkW ) for selected samples were obtained by the extrapolation of the retention parameter logk to pure water, according to Equation (1):(1) logk=logkw−S·ϕ; where logkW is the value of the retention factor of a substance in pure water, S is the slope of the regression curve, and ϕ is the concentration of the organic modifier. The values of logk were calculated based on the raw HPLC data using the formula (2):(2) logk=logtR−t0/t0; where tR is the retention time and t0 is the dead retention time (determined for uracil).
The chromatographic lipophilicity parameters (logkௐ ) for selected samples were ob‐ tained by the extrapolation of the retention parame te r logk to pure water, according to […]
where logkௐ is the value of the retention factor of a substance in pure water, S is the slope of the regression curve, and φ is the concentration of the organic modifier. The values of logk were ca lcula ted based on the raw HPLC data using the formula: […]
logk ൌ log ሺ௧ೃ ି ௧బ௧బ ሻ (2) where tோ is the retention time and t଴ is the dead retention time (determined for ura‐ cil). The goodness of fit of the equation (1) to the experimental data was classified accord‐ ing to Jaffe (Jaffe, H. H. A Reexamination of the Hammet Equation. Chem. Rev. 1953, 53, In our RP‐HPLC experiments, the goodness of fit of the equation to the experi‐ mental data are excellent in most ca ses (r > 0.99). The F statistic val ues are, in all cases, […]

[6] = MOLT-4, 48 h incubation, average (SD) of three experiments
[7] = 48 h incubation, average (SD) of three experiments

| Compound | melting point | IC50 [1, 6] | IC50 [2] | IC50 [3, 7] | IC50 [4] | also measured |
| --- | --- | --- | --- | --- | --- | --- |
| CCCCN(CCCC)CC(O)CN1C(=O)C2C(C1=O)C1(C)C(=O)C2(C)C(c2ccccc2)=C1c1ccccc1 (stereo not shown) (as salt: HCl) [1e, 4-[3-(dibutylamino)-2-hydroxypropyl]-1,7-dimethyl-8,9-diphenyl-4-azatricyclo [5.2.1.0^2,6]dec-8-ene-3,5,10-trione] | 192 to 196 °C |  |  |  |  |  |
| CC12C(=O)C(C)(C(c3ccccc3)=C1c1ccccc1)C1C(=O)N(CC(O)CN3CCCCC3)C(=O)C12 (stereo not shown) (as salt: HCl) [1f, 4-[2-hydroxy-3-(piperidin-1-yl)propyl]-1,7-dimethyl-8,9-diphenyl-4-azatricyclo[5.2.1.0^2,6]dec-8-ene-3,5,10-trione] | 170 to 171 °C |  |  |  |  |  |
| CC12C(=O)C(C)(C(c3ccccc3)=C1c1ccccc1)C1C(=O)N(CCN3CCCCC3)C(=O)C12 (stereo not shown) (as salt: HCl) [1i, 4-[2-(piperidin-1-yl)ethy]-1,7-dimethyl-8,9-diphenyl-4-azatricyclo[5.2.1.0^2,6]dec-8-ene-3,5,10-trione] | 214 to 216 °C |  |  |  |  |  |
| CC12C(=O)C(C)(C(c3ccccc3)=C1c1ccccc1)C1C(=O)N(CCN3CCOCC3)C(=O)C12 (stereo not shown) (as salt: HCl) [1j, 4-[2-(morpholin-4-yl)ethy]-1,7-dimethyl-8,9-diphenyl-4-azatricyclo[5.2.1.0^2,6]dec-8-ene-3,5,10-trione] | 227 to 228 °C |  |  |  |  |  |
| CCCCN(CCCC)CC(O)CN1C(=O)C2C(C1=O)C1(CC)C(=O)C2(CC)C(c2ccccc2)=C1c1ccccc1 (stereo not shown) (as salt: HCl) [2e, 4-[3-(dibutylamino)-2-hydroxypropyl]-1,7-diethyl-8,9-diphenyl-4-azatricyclo[5.2.1.0^2,6]dec-8-ene-3,5,10-trione] | 92 to 110 °C |  |  |  |  |  |
| CCC12C(=O)C(CC)(C(c3ccccc3)=C1c1ccccc1)C1C(=O)N(CC(O)CN3CCCCC3)C(=O)C12 (stereo not shown) (as salt: HCl) [2f, 4-[2-hydroxy-3-(piperidin-1-yl)propyl]-1,7-diethyl-8,9-diphenyl-4-azatricyclo[5.2.1.0^2,6]dec-8-ene-3,5,10-trione] | 190 to 195 °C |  |  |  |  |  |
| CCCCN(CCCC)CC(O)CN1C(=O)C2C(C1=O)C1(c3ccccc3)CC2(c2ccccc2)C(c2ccccc2)=C1c1ccccc1 (stereo not shown) (as salt: HCl) [3e, 4-[3-(dibutylamino)-2-hydroxypropyl]-1,7,8,9-tetraphenyl-4-azatricyclo[5.2.1.0^2,6]dec-8-ene-3,5-dione] | 237 to 238 °C |  |  |  |  |  |
| O=C1C2C(C(=O)N1CC(O)CN1CCCCC1)C1(c3ccccc3)CC2(c2ccccc2)C(c2ccccc2)=C1c1ccccc1 (stereo not shown) (as salt: HCl) [3f, 4-[2-hydroxy-3-(piperidin-1-yl)propyl]-1,7,8,9-tetraphenyl-4-azatricyclo[5.2.1.0^2,6]dec-8-ene-3,5-dione] | 268 to 270 °C |  |  |  |  |  |
| CCN(CC)CC(O)CN1C(=O)C2C(C1=O)C1(C)C(=O)C2(C)C(c2ccccc2)=C1c1ccccc1 (stereo not shown) [1d, 4-[3-(diethylamino)-2-hydroxypropyl]-1,7-dimethyl-8,9-diphenyl-4-azatricyclo[5.2.1.0^2,6]dec-8-ene-3,5,10-trione] |  | 37 µM | 39 µM | 22 µM | 59 µM | logkw (Experimental) [5]: 4.87; logkw (Table S2) [5]: 4.8734 |
| CC12C(=O)C(C)(C(c3ccccc3)=C1c1ccccc1)C1C(=O)N(CCCl)C(=O)C12 (stereo not shown) [1h, 4-(2-chloroethyl)-1,7-dimethyl-8,9-diphenyl-4-azatricyclo[5.2.1.0^2,6]dec-8-ene-3,5,10-trione] | 190 to 191 °C |  |  |  |  | IC50 ([1]; MOLT-4, 48 h): 20 µM; IC50 ([3]; 48 h): 64 µM |
| CCNCC(O)CN1C(=O)C2C(C1=O)C1(CC)C(=O)C2(CC)C(c2ccccc2)=C1c1ccccc1 (stereo not shown) [2b, 4-[3-(ethylamino)-2-hydroxypropyl]-1,7-diethyl-8,9-diphenyl-4-azatricyclo [5.2.1.0^2,6]dec-8-ene-3,5,10-trione] |  | 14 µM | 8 µM | 3.4 µM | 26 µM | logkw (Experimental) [5]: 5.08; logkw (Table S2) [5]: 5.0846 |
| CCC12C(=O)C(CC)(C(c3ccccc3)=C1c1ccccc1)C1C(=O)N(CC(O)CN3CCOCC3)C(=O)C12 (stereo not shown) [2g, 4-[-2-hydroxy-3-(morpholin-4-yl)propyl]-1,7-diethyl-8,9-diphenyl-4-azatricyclo[5.2.1.0^2,6]dec-8-ene-3,5,10-trione] |  | 18 µM | 20 µM | 17 µM | 23 µM | logkw (Experimental) [5]: 4.98; logkw (Table S2) [5]: 4.9763 |
| O=C1C2C(C(=O)N1CC(O)CN1CCOCC1)C1(c3ccccc3)CC2(c2ccccc2)C(c2ccccc2)=C1c1ccccc1 (stereo not shown) [3g, 4-[-2-hydroxy-3-(morpholin-4-yl)propyl]-1,7,8,9-tetraphenyl-4-azatricyclo[5.2.1.0^2,6]dec-8-ene-3,5-dione] |  | 5.2 µM | 31 µM | 17 µM | 120 µM | logkw (Experimental) [5]: 6.28; logkw (Table S2) [5]: 6.2759 |
| CC12C(=O)C(C)(C(c3ccccc3)=C1c1ccccc1)C1C(=O)N(CCO)C(=O)C12 (stereo not shown) [compound 4, 4-(2-hydroxyethyl)-1,7-dimethyl-8,9-diphenyl-4-azatricyclo[5.2.1.0^2,6]dec-8-ene-3,5,10-trione] | 186 to 187 °C | 71 µM | 105 µM | 56 µM | 61 µM |  |
